Experimental data from patent publication US9861568B2, “Composition for improving skin conditions, containing chlorophyll a or pheophorbide a” (GWANGJU INSTITUTE OF SCIENCE AND TECHNOLOGY, priority 2014, dated 2018).

Columns and labels:
[1] = test system: dorsal skin of UV-irradiated SKH-1 hairless mice; assay: Histological examination of dorsal skin of UV-irradiated mice (H&E, Masson-trichrome); format: in vivo, mouse; settings: 5 mg/kg daily oral; for collagen breakdown in the dermis / infiltration of inflammatory cells in the epidermis and upper dermis: compared with the control group; for infiltration of inflammatory cells in the epidermis and upper dermis: H&E stain; for thickness of the epidermis: Masson-trichrome staining
Description: (§1) In order to irradiate animals with UV, the minimal erythema dose (MED) of the dorsal skin of mice was examined first. Minimal erythema dose means the minimum amount of erythema that can be derived with a clear border after 24 hours of irradiation. The mice were irradiated three times a week for 8 weeks with UV. During the first 3 weeks, the dose was increased by 1 MED (herein, 1 MED=30 mJ/cm2), and then 3 MED was maintained thereafter.
(§2) Premature female SKH-1 hairless mice were purchased from Charles River Laboratories (Wilmington, Mass.) and adapted for one week. The mice were housed in air-conditioned rooms in a 12-hour light/12-hour dark cycle to allow them to eat water and food freely. The room temperature was maintained at 23±3° C. and under humidity at 55±15%. All experiments were approved by the Animal Care and Use Committee at Gwangju Institute of Science and Technology.
(§3) After the adaptation period, mice were divided into 4 groups of 6 mice per each group. Each of the groups was as follows:
(§4) Chlorophyll a (Ca, Sigma-Aldrich, St Louis, Mo., USA) or pheophorbide a (Pa, Frontier Scientific, Logan, Utah, USA) was dissolved in a solution of 40% polyethylene glycol 400 (Sigma-Aldrich, St Louis, Mo., USA), respectively. As a control, vehicle was prepared with only 40% polyethylene glycol 400 solution and administered to mice in the negative control and positive control groups. The administration of test materials was made immediately after UV irradiation.
Tissue samples taken from the dorsal skin of UV-irradiated mice were fixed in 4% paraformaldehyde and then included in paraffin. Thin sections with a thickness of 4 μm were stained with hematoxylin and eosin solution. To visualize collagen deposition, the sections were stained with Accustain trichrome stain (Sigma-Aldrich, St. Louis, Mo., USA). The epidermal thickness from a junction of the granular keratocytes to a junction of the dermis-epidermis was measured using an i-Solution DT image acquisition and analysis program (IMT 20 i-solution, Vancouver, Canada) and a Leica microscope (Leica, Wetzlar, Germany). To assess the thickness of the epidermis, any of the ten sites on the slide were measured. In […], inflammatory cells from epidermis to subcutaneous fat layer were calculated.

[2] = test system: intercellular adhesion molecule-1 (ICAM-1); assay: Immunohistochemical staining for ICAM-1 in dorsal skin of UV-irradiated mice; format: in vivo, mouse; settings: 5 mg/kg daily oral, compared with the UV-only-irradiated group
Description: as §1, §2, §3
as §4, with “The administration of test materials was made immediately after UV irradiation.” left out

[3] = test system: dorsal skin of UV-irradiated SKH-1 hairless mice; assay: Wrinkle evaluation of dorsal skin of UV-irradiated hairless mice (visual grade, negative replica); format: in vivo, mouse; settings: UV 8 weeks, 5 mg/kg daily oral; for visual wrinkle grade: clinical images rated by two practitioners; for wrinkle area in replicated images: compared to the control group; for thickness of wrinkles of dorsal skin: compared with the control group
Description: as §1, §2, §3
(c) Group of receiving 5 mg/kg daily chlorophyll a with UV irradiation
(d) Group of receiving 5 mg/kg pheophorbide a daily with UV irradiation
as §4
A digital camera (Sony Cybershot DSC-W570, 5× optical zoom, 16.1 megapixels, Sony Corporation, Tokyo, Japan) was used to obtain a clinical image of the dorsal skin after continuous exposure to low dose UV. The enlarged wrinkles were obtained using DermLite®IIHybridM (3Gen, LLC, San Juan Capistrano, Calif., USA) attached to the digital camera. The wrinkles of the dorsal skin of the mice were graded according to the method described by Bissett et al.. The grades were as follows:
Grade 0—no thick wrinkles;
Grade 1—a few shallow thick wrinkles;
Grade 2—some thick wrinkles;
Grade 3—multiple deep thick wrinkles.
A negatively imprinted replica was used to analyze the wrinkles of the skin, which is described by Ryu et al.. That is, a semi-fluidic silicone polymer was mixed with a catalyst (Imprint II Garant™ Light Body, 3M) and then applied to a dorsal skin sufficiently to penetrate into the wrinkles beyond a contour. This replica was analyzed under standard illumination with an incident angle where the replica was formed and set to produce a reflective shadow proportional to the height of the wrinkles. The captured images were analyzed from a shadow region in the images using image analysis software (ImageJ software, NIH Image, National Institutes of Health, Bethesda, Md., USA; online at: http://rsb.info.nih.gov/ij/).

MMP-3 [4] = assay: Western blotting of MMP-3 protein in UV-irradiated hDF cells; format: cell-based, human; settings: various concentrations
Description: (§5) The primary human dermal fibroblast (hDF) cell line was obtained from Chonnam National University Medical School (Gwangju, Republic of Korea). The cells were cultured at 37° C. and under 5% CO2 using Dulbecco's Modified Eagle's Medium (DMEM, Gibco Laboratories, Grand Island, N.Y., USA) supplemented with 5% fetal bovine serum (Gibco Laboratories, Grand Island, N.Y., USA) and 1% penicillin (100 units/ml)/streptomycin ([…]).
(§6) Philips TL 20W/12 RS fluorescent sun lamp with emission spectra of 280 nm and 380 nm was used as an UV source. The UV intensity at the skin surface was measured using a UV detector (GUVx-T1xGS5-LA2, Genicom Daejeon, Korea). The UV irradiation intensity was 1.0 mW/cm2 at 30 cm from the UV source. The cells were cultured up to 75-80% of culture dish, washed twice with PBS buffer, and irradiated with UV to treat test materials. Thereafter, the cells were continuously cultured in the absence of light until the next analysis. […]

[5] = test system: extracellular signal-regulated kinase (Erk); assay: Western blotting of phosphorylated Erk in UV-irradiated hDF cells; format: cell-based, human; settings: 20 μM and 50 μM, 2 hours in the absence of light
Description: as §5, §6

MMP-1 [6] = assay: Real-time RT-PCR of MMP-1 mRNA in UV-irradiated hDF cells; format: cell-based, human; settings: cultured 24 hours, relative to GAPDH
Description: as §5
(§7) Philips TL 20W/12 RS fluorescent sun lamp with emission spectra of 280 nm and 380 nm was used as an UV source. The UV intensity at the skin surface was measured using a UV detector (GUVx-T1xGS5-LA2, Genicom Daejeon, Korea). The UV irradiation intensity was 1.0 mW/cm2 at 30 cm from the UV source. The cells were cultured up to 75-80% of culture dish, washed twice with PBS buffer, and irradiated with UV to treat test materials. Thereafter, the cells were continuously cultured in the absence of light until the next analysis.
(§8) Total RNA was isolated using a Trizol reagent (Invitrogen, Carlsbad, Calif., USA) according to the manufacturer's instructions. […] For the detection of fluorescence during the PCR amplification, SYBR Premix Ex Taq (Takara Bio, Otsu, Japan) was used. […]
(§9) In addition, UV was irradiated, the test materials were treated, cultured for 24 hours, and then the mRNA level of MMPs was analyzed using a real time RT PCR method. […]

MMP-1 [7] = assay: Western blotting of MMP-1 protein in UV-irradiated hDF cells; format: cell-based, human; settings: various concentrations
Description: as §5, §6

[8] = test system: human dermal fibroblast (hDF) cells; assay: Cell viability assay (water soluble tetrazolium) in UV-irradiated hDF cells; format: cell-based; settings: UV 20 mJ/cm2, 0, 10, 20, 50 μM, 72 hours in the absence of light
Description: as §5, §7
A water soluble tetrazolium test method was used for cell viability analysis. Quantification of living cells was performed using a […] Ez-cytox Cell Viability Assay Kit (Daeil Lab Co, Seoul, Korea). The formazan dye was analyzed spectrophotometrically by measuring the absorbance at 450 nm using a Chameleon multi-label plate reader (Hidex Personal Life Science, Hidex Oy, Finland). […]

[9] = test system: c-Jun N-terminal kinase (JNK); assay: Western blotting of phosphorylated JNK and JNK in UV-irradiated hDF cells; format: cell-based, human
Description: as §5, §7
The total protein extracts from the samples were dissolved in lysis buffer (50 mM Tris (pH 7.4), 150 mM NaCl, 1 mM EGTA, 1% NP-40, 0.25% sodium deoxycholate, 1 mM PMSF, and phosphatase inhibitor mixture (Sigma, St. Louis, Mo., USA) and then boiled for 5 minutes. The dissolved proteins were quantitated using Bio-Rad Protein Assay Dye Reagent Concentrate (Bio-Rad Laboratories, Hercules, Calif., USA) and then separated by SDS-PAGE and transferred to a polyvinylidene difluoride (PVDF) membrane (Amersham Pharmacia Biotech, Piscataway, N.J., USA). Membranes were reacted with specific primary antibodies overnight at 4° C., and protein bands were then visualized using secondary antibodies coupled with horseradish peroxidase (HRP) and a chemiluminescence detection kit (Amersham Pharmacia Biotech). […]

MMP-3 [10] = assay: Real-time RT-PCR of MMP-3 mRNA in UV-irradiated hDF cells; format: cell-based, human; settings: cultured 24 hours, relative to GAPDH
Description: as §5, §7, §8, §9

| Compound | collagen breakdown in the dermis [1] | infiltration of inflammatory cells in the epidermis and upper dermis [1] | thickness of the epidermis [1] | level of ICAM-1 expression in the epidermis and upper dermis [2] | visual wrinkle grade [3] | wrinkle area in replicated images [3] | thickness of wrinkles of dorsal skin [3] | MMP-3 protein expression level (MMP-3 [4]) | expression level of phosphorylated Erk [5] | MMP-1 mRNA level (MMP-1 [6]) | MMP-1 protein expression level (MMP-1 [7]) | cell viability [8] | MAPK phosphorylation inhibition ([9]; 10 μM, 2 hours) | expression level of phosphorylated JNK ([9]; 20 μM and 50 μM, 2 hours in the absence of light) | basal JNK protein level ([9]; 2 hours in the absence of light) | MMP-3 mRNA level (MMP-3 [10]) |
| --- | --- | --- | --- | --- | --- | --- | --- | --- | --- | --- | --- | --- | --- | --- | --- | --- |
| C=Cc1c(C)c2cc3nc(c4c5[n-]c(cc6nc(cc1[n-]2)C(C)=C6CC)c(C)c5C(=O)[C@@H]4C(=O)OC)[C@@H](CCC(=O)OC/C=C(\C)CCC[C@H](C)CCC[C@H](C)CCCC(C)C)[C@@H]3C.[Mg+2] [chlorophyll a] | less collagen breakdown occurred | reduced | A decrease in thickness | decreased | wrinkles grades were lower | a decrease in the wrinkle area | remarkably reduced | – | – | – | – | – | – | – | – | – |
| pheophorbide a | less collagen breakdown occurred | reduced | A decrease in thickness | decreased | wrinkles grades were lower | a decrease in the wrinkle area | remarkably reduced | decreased in proportion to the amount treated | decreased | significant decrease | decreased in proportion to the amount treated | not affected | not as much as 20 μM and 50 μM | decreased | decreased in proportion to the amount of pheophorbide a | significant decrease |
